Experimental data reported in patent US4012367A, “Anti-ulcer polypeptides containing L-aspartic acid and intermediates thereto” (G. D. Searle & Co., priority 1976, dated 1977).
Non-standard residues stand in square brackets, D forms with d. Residues, ends and D or L forms follow the SMILES beside them. *: point of attachment. Boc = CC(C)(C)OC(=O)*

System: gastric acid secretion induced by the administration of pentagastrin
Experiment: Inhibition of pentagastrin-induced gastric acid secretion in anesthetized rats with perfused stomach (modified Ghosh and Schild)
Format: in vivo
Set-up: key to rating in assay: antagonism of the secretory response induced by pentagastrin: A test compound is considered active if the standard pentagastrin response is blocked to the extent of at least 50%
Conditions: urethane-anesthetized male Charles River rats, gastric effluent pH, pentagastrin 0.1 mcg./rat intravenously
Text: The compounds of the present invention are useful in consequence of their valuable pharmacological properties. They are, for example, gastric anti-secretory agents as evidenced by their ability to inhibit the gastric acid secretion induced by the administration of pentagastrin.
The assay utilized for detection of that property is a modification of the procedure described by Ghosh and Schild, J. Physiol., Lond., 128:35-36P (1955); Br. J. Pharmacol. Chemother., […]:54-61 (1958); and by Smith et al., Br. J. Pharmacol., 38:206-213 (1970). The details of that assay are as follows:
A group of male Charles River rats weighing 300-400 g. are anesthetized by the intramuscular administration of urethane at a dose of 1.5 g./kg. The trachea is exposed and cannulated and a polyethylene tube is passed through the esophagus into the cardiac junction of the stomach and is ligated in place in the neck, excluding the vagal nerves. The external jugular vein is exposed and cannulated to facilitate intravenous administration. The femoral artery is exposed and cannulated for recording of blood pressure. The abdomen is opened. […] The test compounds are evaluated for their ability to antagonize the secretory response induced by the administration of pentagastrin. […]

Compound	inhibition of gastric acid secretion induced by pentagastrin (result in words)	rating in assay: antagonism of the secretory response induced by pentagastrin
CSCC[C@H](NC(=O)OC(C)(C)C)C(=O)N[C@@H](CC(=O)O)C(=O)N[C@H](C)C(N)=O [N-t-butoxycarbonyl-L-methionyl-L-aspartyl-D-alanine amide] (Boc-Met-Asp-[dA]-NH2)	particularly active	
CSCC[C@H](NC(=O)[C@H](Cc1c[nH]c2ccccc12)NC(=O)OC(C)(C)C)C(=O)N[C@@H](CC(=O)O)C(=O)N[C@H](C)C(N)=O [N-t-butoxycarbonyl-L-tryptophanyl-L-methionyl-L-aspartyl-D-alanine amide] (Boc-WMD[dA]-NH2)		active
